Results as given in US7399771B2, “Piperidine derivatives as CCR5 inhibitors” (Novartis AG, priority 2002, dated 2008).

What was measured:
Human CCR5 [1] = biological target: T1, Human CCR5 (Homo sapiens, UniProt P51681); assay: CCR5 functional assay - Ca2+ mobilization in CHO K1 CCR5 transfectants; assay type: cell-based
T1 construct: expressed in transfected cells
Method: b) CCR5 Functional Assay—Ca^2+ Mobilization Human CCR5 is used to generate stable transfectants in CHO K1 cells. These CCR5 transfectants are used for assessing Ca^2+ mobilization in response to stimulation by the CCR5 ligands MIP-1α, MIP-1β, HCC-1(9-74) or RANTES. For the assay the cells are loaded with a Ca^2+-sensitive fluorochrome (Fluo3 or Fluo4). Ligand concentrations between 0.01-100 nM are used to induce Ca^2+ mobilization which is monitored in a fluorometer with appropriate settings. To assess the activity of the compounds to be tested, a baseline fluorescence reading is taken after which the compounds at the desired concentration are added to the cells and fluorescence is further recorded for a certain time to assess whether compounds show agonistic effects. Next the agonist is added to the mixture and fluorescence monitored. The inhibition of Ca^2+ flux in the presence of the compounds to be tested is calculated from the inhibition of maximal fluorescence induced by the agonist. IC50 values are calculated from dose-response curves obtained with the compounds.

Human CCR5 [2] = biological target: T1, Human CCR5; assay: CCR5 membrane binding assay ([I-125]MIP-1α radioligand, membranes of CHO K1 transfectants); conditions: membranes of CHO K1 cells transfected with human CCR5; ligand 125-I MIP-1α
Method: a) CCR5 Membrane Binding Assay
Human CCR5 is used to generate stable transfectants in CHO K1 cells. Membranes prepared from these CCR5 transfectants are used in a radioligand binding assay using 125-I MIP-1α as a ligand and the compounds of formula I are tested for inhibitory activity.

T1 sequence (P51681 whole entry): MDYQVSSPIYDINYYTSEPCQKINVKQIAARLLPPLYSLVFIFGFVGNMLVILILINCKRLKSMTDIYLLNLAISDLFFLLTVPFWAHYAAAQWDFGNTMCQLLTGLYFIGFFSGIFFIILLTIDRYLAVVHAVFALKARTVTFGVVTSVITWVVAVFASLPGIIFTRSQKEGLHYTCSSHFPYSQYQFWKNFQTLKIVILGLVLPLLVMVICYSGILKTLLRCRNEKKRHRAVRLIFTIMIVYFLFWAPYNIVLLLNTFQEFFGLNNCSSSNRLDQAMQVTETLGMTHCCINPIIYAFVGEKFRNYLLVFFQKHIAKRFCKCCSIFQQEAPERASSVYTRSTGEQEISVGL

Cc1cc[n+]([O-])c(C)c1C(=O)N1CCC(C)(N2CCC(N(c3ccccc3)c3ccccn3)CC2)CC1 [Example 12, (2,4-Dimethyl-1-oxy-pyridin-3-yl)-[4′-methyl-4-(phenyl-pyridin-2-yl-amino)-[1,4′]bipiperidinyl-1′-yl]methanone]
IC50 (Human CCR5 [1]): 29 nM

Cc1nc(CN(c2ccc(Cl)cc2)C2CCN(C3(C)CCN(C(=O)c4c(C)cccc4C)CC3)CC2)cs1 [Example 32]
IC50 (Human CCR5 [2]): 0.5 nM

Cc1cc[n+]([O-])c(C)c1C(=O)N1CCC(C)(N2CCC(N(Cc3ccsc3)c3ccccc3)CC2)CC1 [Example 36, (2,4-Dimethyl-1-oxy-pyridin-3-yl)-[4′-methyl-4-(phenyl-thiophen-3-ylmethyl-amino)-[1,4′]bipiperidinyl-1′-yl]-methanone]
IC50 (Human CCR5 [1]; CHO K1 CCR5 transfectants, Fluo3 or Fluo4, agonist MIP-1α, MIP-1β, HCC-1(9-74) or RANTES, read-out: IC50, inhibition of Ca2+ flux): 8 nM
